According to patent US11523610B2, “Regulating plant growth using a diapocarotenoid” (King Abdullah University of Science and Technology, priority 2018, dated 2022):

Assays:
[1] = tested on: Arabidopsis seedlings (anchor roots); assay: ANR formation under OH-Apo10′ and OH-Apo12′ treatment; assay type: in vivo; details: 10 μM, counted at 10 DAG
From the text: FIGS. 21A-D show a diapocarotenoid precursor (OH-Apo12′) is converted into anchorene in plants, according to one or more embodiments of the present disclosure. […] (B) is a histogram showing quantification of achorene in mock, OH-Apo10′, and OH-Apo12′ fed Arabidopsis seedlings. (C) is a histogram showing ANR emergence in mock, OH-Apo10′, and OH-Apo12′ fed seedlings. […] For B and C, two-tailed Student's t-test, **P<0.01, *** P<0.001; in B, n=4; in C data are presented as mean ±SD from 3 independent replicates; in B, 12-day-old seedlings were incubated with indicated chemicals for 6 hours and 20 μM OH-Apol10′ and OH-Apo12′ were used; and C, 10 μM OH-Apol ′ and OH-Apo12′ were used and the ANR No./plant was counted at 10 DAG. For the quantification of ANR formation under OH-Apo10′ and OH-Apo12′ treatment conditions, the sterilized Arabidopsis seeds were exposed to light for 24 hours first, and then plated to 1/2 MS plates with indicated chemicals; the plates were kept under darkness (22° C.) for another two days and then exposed to long day light conditions for another 7 days to count the ANR emergence.

[2] = LC-MS quantification of anchorene in Arabidopsis tissues; details: 12-day-old seedlings incubated 6 hours with 20 μM; compared to control and OH-APO10′
Procedure: About 30 mg (30-40 mg) of freeze-dried and ground Arabidopsis seedlings tissues were extracted using 1 mL of acetonitrile with anti-oxidant [0.1% butylated hydroxytoluene (BHT)] for 15 min in an ultrasonic bath (Branson® 5510EDTH, 25° C., 15 min), followed by centrifugation for 8 min at 13000 rpm at 4° C. The collected supernatant was dried using a concentrator (Labconco RapidVap® System). The extract was derivatized (SCHEME 3) with 50 μL of derivatization solution containing 5 mg/mL derivatization reagent (N^2,N^2,N^4,N^4-tetraethyl-6-hydrazineyl-1,3,5-triazine-2,4-diamine) (Chemspace) and 1% formic acid in methanol at 37° C. for 15 min. Then the sample solution was diluted to 150 μL with 1% formic acid in methanol and filtered by using 0.22 μm filter before LC-MS analysis.
The quantitative analysis of derivative anchorene were carried out on HPLC-Q-Trap MS/MS. Chromatographic separation was achieved on an Acquity UPLC CSH C18 column (50×2.1 mm; 1.7 μm; Waters) using a mobile phase consisting of water: acetonitrile (95:5, v:v, A) and pure acetonitrile (B), both containing 0.1% formic acid. A gradient was applied, starting with 10% B and increasing to 40% B over 5 min. Then 15% B was increased
within 10 min followed by an increase of 45% B over 2 min. And then 100% B was maintained for 10 min. To equilibrate the column before the next run, the mobile phase was adjusted back to 10% B in 1 min and this concentration was maintained for 8 min prior to the next sample injection. A flow rate of 0.15 mL/min and a column temperature of 40° C. were maintained throughout the run. The eluent of the column was introduced to the mass spectrometer using turbo spray ion source in positive mode. The injection volume was 10 μL. The conditions of the mass spectrometer were set as following: curtain gas: 30; ion spray voltage: 5 kV; temperature: 400° C.; ion source gas 1: 30; ion source gas 2: 40; declustering potential, 55; entrance potential: 10; collision energy: 25; collision cell exit potential: 10. […]

SMILES | anchor roots formed compared to mock (ANR No./plant) [1] | anchorene content of fed seedlings [2]
CC(C=CC=O)=CC=CC=C(C)C=CC=C(C)C=CC1=C(C)CC(O)CC1(C)C (stereo not drawn) [OH-APO10′, reference compound] | not | 
CC1=C(/C=C/C(C)=C/C=C/C(C)=C/C=C/C=C(\C)C=O)C(C)(C)CC(O)C1 (stereo not drawn) [OH-APO12′, all-trans-3-OH-β12′-carotenal] | formed more anchor routes | much more anchorene
